Where two headings read alike, the source gives them in different places.
Experiments:
[1] = tested on: OCI-LY10 cells; assay: Inhibitory activity on OCI-LY10 cell proliferation (CCK-8); assay type: cell-based
Summary of the method: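 Cells seeded at 1×10^5 cells/mL and incubated overnight were exposed in duplicate to final compound concentrations of 5000 nM-0.31 nM for 72 h. CCK-8 was added for 2.5 h and absorbance read at 450 nm. IC50 was obtained from four-parameter dose-response fits.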

[2] = tested on: TMD8-BTK(C481S) cells; assay: Inhibitory activity on TMD8-BTK(C481S) cell proliferation (CCK-8); assay type: cell-based; conditions: 72 h, 72 h incubation
Summary of the method: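 Cells seeded at 8×10^4 cells/mL, incubated overnight, then treated in duplicate with compounds at 5000 nM-0.31 nM for 72 h. Viability by CCK-8 (4 h, absorbance 450 nm); IC50 from four-parameter dose-response fits.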

[3] = In vitro liver microsomal stability, mouse; conditions: 0.5 mg/mL microsomes, NADPH, 37° C., 1 h
Protocol: (§1) Liver microsome incubation samples were prepared by mixing a PBS buffer (pH 7.4), a liver microsome solution (0.5 mg/mL), a test compound, and an NADPH+MgCl2 solution and incubated at 37° C. and 300 rpm for 1 h. Zero-hour samples were prepared by mixing a PBS buffer (pH 7.4), a liver microsome solution (0.5 mg/mL), and a test compound. An acetonitrile solution containing an internal standard was added to the samples, and supernatants were prepared by protein precipitation, diluted, and then assayed by LC/MS/MS.

[4] = tested on: TMD-8 xenograft tumors; assay: In vivo drug efficacy, TMD-8 mouse subcutaneous xenograft tumors; parameters: species or system NOD-SCID mice; conditions: 30 mg/kg, qd, i.g.
Protocol: TMD-8 mouse subcutaneous xenograft tumors: TMD-8 (WT) cells at a concentration of 1×10^8/mL were inoculated under aseptic conditions into the right side armpit of NOD-SCID mice at 0.1 mL/mouse. After subcutaneous grafting, the animals were divided into groups with 6 animals in each group when the tumor volume reached about 188 mm^3 (or 200 mm^3):
model group: vehicle, 6 mice; compound administration groups: 30 mg/kg, qd, i.g., 6 mice.
The vehicle or the test compound was intragastrically given at a volume of 4 mL/kg, once daily for 16 consecutive days. The tumor volume was measured 2-3 times a week, and meanwhile, the mice were weighed and the data were recorded; the general behaviors of the animals were observed every day. After all dosing was complete, the animals were sacrificed on day 17, and the tumors were removed and weighed.
The tumor volume and the tumor growth inhibition were calculated using the following formulae:
Tumor volume (TV)=(Length×Width^2)/2.
Tumor growth inhibition (TGI)=(1−tumor weight of treatment group/tumor weight of model group)×100%.

[5] = Mouse pharmacokinetics; assay type: in vivo, ICR mice
Summary of the method: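 ICR mice (18–22 g, n=9 per group) dosed intragastrically at 10 mg/kg. Orbital blood sampled from 15 min to 24 h; plasma was precipitated with acetonitrile containing internal standard and quantified against a standard curve. Parameters derived by non-compartmental analysis.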

[6] = In vitro liver microsomal stability, human; assay type: in vitro ADME; conditions: 0.5 mg/mL microsomes, NADPH, 37° C., 1 h
Protocol: as §1

[7] = tested on: OCI-LY10-BTK(C481S) cells; assay: Inhibitory activity on OCI-LY10-BTK(C481S) cell proliferation (CCK-8); assay type: cell-based; conditions: 72 h incubation, IC50 per method, unit inferred
Protocol: OCI-LY10(C481S) cells in the logarithmic growth phase were collected and added to a centrifuge tube, adjusted to a cell density of 5×10^4 cells/mL, and seeded in a 96-well plate (100 μL/well). Meanwhile, compounds were added using a nanoliter pipettor such that the final concentrations of the compounds were 5000 nM-0.31 nM; the addition was performed in duplicate, and meanwhile, a control was set. After another 72 h of incubation in the cell incubator, the detection reagent CCK-8 (manufacturer: Dojindo Laboratories, Beijing; 10 μL/well) was added. After 3 h of incubation in the cell incubator, absorbance values were detected at 450 nm using a PerkinElmer Envision microplate reader, the four-parameter analysis was performed, the dose-response curves were fit, and IC50 was calculated.

[8] = Homo sapiens, OCI-Ly10, 72 h incubation
[9] = ICR, mouse, plasma, iv, 1 mg/kg, Mouse i.v. 1 mpk
[10] = ICR, mouse, plasma, iv, 1 mg/kg, Mouse i.v. 1 mpk, read-out: AUC
[11] = ICR, mouse, plasma, po, 10 mg/kg, Mouse i.g. 10 mpk
[12] = ICR, mouse, plasma, po, 10 mg/kg, Mouse i.g. 10 mpk, read-out: AUC
[13] = ICR, mouse, plasma, po, 10 mg/kg, Mouse i.g. 10 mpk, read-out: Cmax

IC50 [1, 8] [nM]	Mouse liver microsome Residuals at 60 min [3] [%]	clearance [5, 9] [mL/min/kg]	half-life [5, 9] [h]	AUC [5, 10] [ng·h/mL]	half-life [5, 11] [h]	AUC [5, 12] [ng·h/mL]	Cmax [5, 13] [ng/mL]	F ([5]; Mouse i.g. 10 mpk) [%]	Human liver microsome Residuals at 60 min [6] [%]	Structure (SMILES)	also measured
< 0.31	65.4	2.65	1.6	6140	2.9	35600	3850	57.98		CN1CCN([C@@H]2CCCN(c3cnc(C(N)=O)c(Nc4ccc(C5CCN(C6CN(c7ccc8c(C9CCC(=O)NC9=O)noc8c7)C6)CC5)cc4)n3)C2)C1=O (some centres unmarked) [Compound 10]	IC50 [2]: 2.4 nM; TGI d 17 ([4]; 16 days, tumor weight on day 17): 97.5%; TV on d 0 Mean ± SD ([4]; day 0 (baseline at grouping)): 226 ± 29 mm^3; TV on d 12 Mean ± SD ([4]; day 12): 235 ± 57 mm^3; TV on d 15 Mean ± SD ([4]; day 15): 209 ± 60 mm^3
< 0.31		9.33	1.4	1760	2.4	7690	766	44.0	56.0	CN1CCN([C@@H]2CCCN(c3cnc(C(N)=O)c(Nc4ccc(N5CCC(CN6CCc7ccc8c(C9CCC(=O)NC9=O)noc8c7CC6)CC5)cc4)n3)C2)C1=O (some centres unmarked) [Compound 27]	IC50 ([7]; 72 h): 0.062 nM
	71.0							26.0	55.0	CN1CCN([C@@H]2CCCN(c3cnc(C(N)=O)c(Nc4ccc(C5CCC(N6Cc7ccc8c(C9CCC(=O)NC9=O)noc8c7C6)CC5)cc4)n3)C2)C1=O (some centres unmarked) [Compound 33]	IC50 ([1]; 72 h incubation): < 0.31 nM; IC50 [7]: 0.37 nM; AUC ([5]; Mouse i.g. 10 mpk): 20971 ng·h/mL; Cmax ([5]; Mouse i.g. 10 mpk): 1555 ng/mL; t1/2 ([5]; Mouse i.g. 10 mpk): 3.2 h; AUC ([5]; Mouse i.v. 1 mpk): 7987 ng·h/mL; Cl ([5]; Mouse i.v. 1 mpk): 2.17 mL/min/kg; t1/2 ([5]; Mouse i.v. 1 mpk): 2.6 h

From patent US20250152719A1, “FUSED IMIDE DERIVATIVE” (Chia Tai Tianqing Pharmaceutical Group Co., Ltd., priority 2021, published 2025)
